Results: the NIST ThermoML archive (doi:10.1021/je050173+)

Tests used:
[1] = for mass density / viscosity / thermal conductivity: 101.33 kPa; for mass density / viscosity / thermal conductivity / vapor or sublimation pressure: Liquid; for thermal conductivity: Hot wire method; for surface tension liquid-gas: Maximal bubble pressure
[2] = molar heat capacity at constant pressure; settings: 101.33 kPa, Liquid

C[Si]1(C)O[Si](C)(C)O[Si](C)(C)O1 [hexamethylcyclotrisiloxane]
Settings	mass density [kg/m3]	molar heat capacity at constant pressure [J/K/mol]	surface tension liquid-gas [mN/m]	thermal conductivity [W/m/K]	vapor or sublimation pressure [kPa]	viscosity [mPa·s]
[1], 343.15 K	872.69	–	–	0.1026	–	0.48
[1], 344.55 K	–	–	13.54	–	–	–
[1], 347.35 K	–	–	13.32	–	–	–
[1], 347.64 K	–	–	–	–	13.85	–
[1], 348.15 K	–	–	–	–	–	0.46
[1], 348.7 K	865.41	–	–	–	–	–
[1], 350.13 K	–	–	–	–	15.28	–
[1], 351.45 K	–	–	–	–	16.19	–
[1], 353.15 K	–	–	–	–	–	0.44
[1], 353.95 K	–	–	12.9	–	–	–
[1], 354.65 K	856.98	–	–	–	–	–
[1], 355.59 K	–	–	–	–	19.01	–
[1], 357.4 K	854.11	–	–	–	–	–
[1], 358.15 K	–	–	–	–	–	0.42
[1], 358.45 K	–	–	12.68	–	–	–
[1], 359.15 K	852.6	–	–	–	–	–
[1], 360.17 K	–	–	–	–	22.55	–
[1], 361.61 K	–	–	–	–	23.75	–
[1], 362.4 K	–	–	–	–	24.47	–
[1], 363.15 K	–	–	12.33	–	–	0.4
[1], 365.71 K	–	–	–	–	27.62	–
[1], 366.1 K	842.76	–	–	–	–	–
[1], 368.15 K	–	–	12.02	–	–	0.39
[1], 368.81 K	–	–	–	–	30.71	–
[1], 369.65 K	838	–	–	–	–	–
[1], 372.34 K	–	–	–	–	34.63	–
[1], 372.68 K	–	–	–	–	35.01	–
[1], 373.15 K	833.47	–	11.71	–	–	0.37
[1], 378.15 K	–	–	11.4	–	–	0.35
[1], 379.16 K	825.64	–	–	–	–	–
[1], 381.37 K	–	–	–	–	46.63	–
[1], 383.15 K	820.39	–	11.09	–	–	0.34
[1], 383.78 K	–	–	–	–	50.31	–
[1], 387.85 K	814.16	–	–	–	–	–
[1], 387.95 K	–	–	–	–	57.22	–
[1], 388.15 K	–	–	–	–	–	0.33
[1], 393.15 K	–	–	–	–	–	0.32
[1], 397.75 K	–	–	–	–	76.52	–
[1], 407.63 K	–	–	–	–	100.85	–
[2], 339.9 K	–	404.5	–	–	–	–
[2], 343.15 K	–	405.9	–	–	–	–
[2], 345.03 K	–	406.7	–	–	–	–
[2], 353.15 K	–	410.4	–	–	–	–
[2], 357.92 K	–	412.3	–	–	–	–
[2], 361.2 K	–	413.8	–	–	–	–
[2], 365.09 K	–	415.6	–	–	–	–
[2], 370.16 K	–	418.1	–	–	–	–
[2], 374.79 K	–	420.1	–	–	–	–
[2], 379.42 K	–	421.8	–	–	–	–
[2], 383.15 K	–	423.6	–	–	–	–
[2], 388.06 K	–	425.6	–	–	–	–
[2], 393.14 K	–	428.1	–	–	–	–
[2], 398.01 K	–	430	–	–	–	–
[2], 400 K	–	431	–	–	–	–
[2], 404.89 K	–	433.2	–	–	–	–

C[Si]1(C)O[Si](C)(C)O[Si](C)(C)O[Si](C)(C)O1 [octamethylcyclotetrasiloxane]
Settings	mass density [kg/m3]	molar heat capacity at constant pressure [J/K/mol]	surface tension liquid-gas [mN/m]	thermal conductivity [W/m/K]	vapor or sublimation pressure [kPa]	viscosity [mPa·s]
[1], 292 K	957.55	–	–	–	–	–
[1], 293.15 K	–	–	17.93	–	–	2.45
[1], 298.15 K	–	–	–	0.1131	–	–
[1], 301.6 K	946.16	–	–	–	–	–
[1], 303.15 K	944.21	–	17.28	–	–	2.06
[1], 311.2 K	934.8	–	–	–	–	–
[1], 311.8 K	–	–	–	–	0.355	–
[1], 313.15 K	932.43	–	16.6	–	–	1.7
[1], 316 K	929.12	–	–	–	–	–
[1], 317.63 K	–	–	–	–	0.535	–
[1], 318.25 K	–	–	–	–	0.548	–
[1], 323.15 K	–	–	15.95	–	–	1.44
[1], 325.62 K	917.74	–	–	–	–	–
[1], 328.59 K	–	–	–	–	0.988	–
[1], 328.78 K	–	–	–	–	0.996	–
[1], 330.47 K	912.06	–	–	–	–	–
[1], 332.94 K	–	–	–	–	1.295	–
[1], 333.15 K	909.32	–	15.16	–	–	1.23
[1], 336.67 K	–	–	–	–	1.642	–
[1], 339.58 K	–	–	–	–	1.926	–
[1], 340.05 K	900.68	–	–	–	–	–
[1], 343.15 K	–	–	14.5	0.1038	–	1.06
[1], 343.99 K	–	–	–	–	2.426	–
[1], 344.8 K	894.99	–	–	–	–	–
[1], 349.65 K	889.31	–	–	–	–	–
[1], 349.86 K	–	–	–	–	3.277	–
[1], 353.15 K	884.79	–	13.77	–	–	0.92
[1], 360.26 K	–	–	–	–	5.47	–
[1], 363.15 K	–	–	13.05	–	–	0.81
[1], 364.04 K	872.24	–	–	–	–	–
[1], 373.15 K	861.35	–	12.38	–	–	0.71
[1], 376.51 K	–	–	–	–	10.96	–
[1], 379.31 K	–	–	–	–	12.23	–
[1], 381.23 K	–	–	–	–	13.17	–
[1], 383.15 K	–	–	–	–	–	0.63
[1], 383.17 K	–	–	–	–	14.24	–
[1], 383.2 K	849.47	–	–	–	–	–
[1], 383.58 K	–	–	–	–	14.44	–
[1], 388.92 K	–	–	–	–	17.67	–
[1], 389.73 K	–	–	–	–	18.2	–
[1], 390.88 K	–	–	–	–	18.9	–
[1], 393.15 K	837.64	–	10.98	–	–	0.56
[1], 396.28 K	–	–	–	–	22.95	–
[1], 397.6 K	832.37	–	–	–	–	–
[1], 403.15 K	–	–	–	–	–	0.51
[1], 407.22 K	821	–	–	–	–	–
[1], 407.56 K	–	–	–	–	33.46	–
[1], 413.15 K	813.94	–	9.58	–	–	–
[1], 413.82 K	–	–	–	–	40.8	–
[1], 421.58 K	803.91	–	–	–	–	–
[1], 423.15 K	–	–	–	–	–	0.41
[1], 423.24 K	–	–	–	–	54.11	–
[1], 433.15 K	790.24	–	8.18	–	–	–
[1], 446.26 K	–	–	–	–	100.82	–
[2], 293.15 K	–	511.5	–	–	–	–
[2], 298 K	–	513.6	–	–	–	–
[2], 303.15 K	–	515.8	–	–	–	–
[2], 306.25 K	–	517.2	–	–	–	–
[2], 313.12 K	–	520.1	–	–	–	–
[2], 319 K	–	522.7	–	–	–	–
[2], 323.25 K	–	524.5	–	–	–	–
[2], 327.55 K	–	526.4	–	–	–	–
[2], 334.75 K	–	529.1	–	–	–	–
[2], 337.88 K	–	530.8	–	–	–	–
[2], 342.23 K	–	532.7	–	–	–	–
[2], 348.05 K	–	535.2	–	–	–	–
[2], 352.2 K	–	538.8	–	–	–	–
[2], 358.83 K	–	539.9	–	–	–	–
[2], 364.28 K	–	542.2	–	–	–	–
[2], 370.25 K	–	543	–	–	–	–
[2], 377.55 K	–	548	–	–	–	–
[2], 382.48 K	–	550.1	–	–	–	–
[2], 388.65 K	–	552.3	–	–	–	–
[2], 393.15 K	–	554.7	–	–	–	–
[2], 399.83 K	–	557.7	–	–	–	–
[2], 407.15 K	–	560.8	–	–	–	–
[2], 415.73 K	–	564.5	–	–	–	–
[2], 425.95 K	–	568.4	–	–	–	–
